Entries after “also recorded” stand apart in the source; their conditions may differ.
Assays:
[1] = tested on: translation of green fluorescent protein (GFP); assay: coupled in vitro transcription-translation inhibition assay (GFP); type: biochemical, E. coli
Protocol: A cell-free translation assay was used to test the potential inhibitory effects of the peptides on protein synthesis. Different concentrations of peptides were added to E. coli S30 extracts and the extent of inhibition was monitored by the measurement of green fluorescent protein (GFP) translation.
The inhibitory effects of selected peptides (DIRTQRE, CVRPFAL, FVRPFAL, TLWDLIP and TYLPWPA) on cellular processes were determined by in vitro coupled transcription-translation inhibition assay. The PURExpress™ in vitro protein synthesis kit #E6800S from New England Biolabs (Beverly, MA) was used for this purpose. A DNA template for GFP (pRSETEmGFP plasmid, Invitrogen) was employed at a concentration of 10 µg/mL in a 15 µL of reaction volume. Different concentrations of peptides were added, ranging from 300 µM to 2 mM. The DNA template was added only after mixing of the peptides or streptomycin so that they could bind to their target region first. For the control, streptomycin was added at a final concentration of 300 µM. The reaction was incubated in 384-well, Costar, clear-well, black plates and in situ incubated at 37 °C in a Gemini XPS microplate spectrofluorometer (Molecular Devices, Sunnyvale, CA) and the amount of GFP produced was monitored at different time intervals from 0 min to 2 h by fluorescence (excitation at 487 nm, emission at 509 nm).

[2] = tested on: GFP-S11-labeled 30S subunits; assay: ribosome-binding assay on Tentagel beads; design: species or system E. coli
Protocol: The purpose of this experiment was to determine whether the selected peptides have affinity for bacterial ribosomes. The binding affinities of various peptides could also be compared by this method. Small ribosomal subunits, 30S, labeled with GFP on ribosomal protein S11 were added to peptides covalently attached to Tentagel beads (Figure 4A). […] The peptides were chemically synthesized on Tentagel beads with their N-termini exposed. Increasing concentrations of GFP-tagged 30S subunits were added to the Tentagel-bound peptides and unbound 30S subunits were removed by washing. Relative fluorescence intensity of the 30S subunits bound to the peptides on bead was determined by imaging on a fluorescence microscope, with the assumption that the level of fluorescence on the beads was proportional to the affinity of the ribosome for the peptide sequence.
Four peptides isolated from the phage-display experiment, […], DIRTQRE, TLWDLIP, and […], were synthesized on Tentagel (Rapp Polymer, Tübingen, Germany) beads using standard Fmoc synthesis. The beads were stored in DMF until use. The beads were then washed three times with 450 μl of water, and three times with 450 μL of the binding buffer B (binding buffer: 20 mM HEPES, pH 7.3, 10 mM MgCl2, 100 mM KCl), using 0.45 μm MWCO Nanosep (Pall Corporation, Ann Arbor, MI). The beads were then centrifuged at 6,000 rpm for 1–2 min.
(§1) Fluorescently labeled 30S subunits were isolated by sucrose gradient centrifugation in 5 mM Mg^2+ [82]. For control experiments, His(6)-EmGFP-S11 was purified using IMAC resin (Bio-Rad, Hercules, CA) and the fluorescence was assayed using beads carrying peptides with ribosomes, beads carrying peptides with His(6)-EmGFP-S11 (no ribosomes) and beads only with ribosomes (no peptides).
(§2) The fluorescent ribosomes were incubated in binding buffer B (20 mM HEPES, pH 7.3, 10 mM MgCl2, 100 mM KCl) at 37 °C for 30 min. Next, 25 pmoles of ribosome solution was added to each peptide, and the mixture was incubated overnight at 4 °C with agitation. Unbound ribosomes were removed by two 450 μL washes with binding buffer B and centrifugation at 6,000 rpm for 1–2 min. The beads were resuspended in 40 μL of binding buffer B for microscope screening and kept on ice until scanning. The beads (20 μL) were spread on microscope slides for scanning (Olympus 1X71 microscope, TH4 100 Olympus lamp, Olympus UCMAD 3 camera, 20× magnification). An average of two pictures were taken per slide, eliminating beads presenting uneven swelling and cracks.

His(6)-EmGFP-S11 protein = assay: bead control with S11-emGFP protein (no ribosomes); type: binding, E. coli; settings: purified His(6)-EmGFP-S11 added to peptide on beads
Protocol: The fluorescence intensity of each set of beads containing the selected peptides was quantified.
as §1, §2

wild-type modified h31 [3] = assay: surface plasmon resonance (SPR), modified h31; type: binding, E. coli; settings: for ka (association rate constant) / kd (dissociation rate constant): 1:1 Langmuir, 150 mM NaCl, 50 μL/min, 25 °C, CM5 chip; for ka (association rate constant): 10 mM Tris·HCl, 10 mM MgCl2, 1 mM DTT, 0.005% P20, pH 7.5; for kd (dissociation rate constant): pH 7.5, 10 mM MgCl2
Protocol: Modified h31 was labeled with biotin in order to immobilize the RNA onto a surface and determine the kinetics of peptide binding by surface plasmon resonance (SPR). […] In order to enhance the signal-to-noise ratio, a GFP-protein-fused peptide, TYLPWPA-GFP, was generated and used as the analyte.
Biotinylated, modified h31 RNA was immobilized onto a streptavidin-coated CM5 chip and differing concentrations of TYLPWPA-GFP (10–100 µM) were injected as the analyte. A range of salt concentrations, detergent levels, pH conditions, and flow rates were tested, since these factors affect the peptide-RNA complex formation (data not shown). The apparent dissociation constants were determined under the following optimized conditions: 10 mM Tris·HCl, 150 mM NaCl, 10 mM MgCl2, 1 mM dithiothreitol (DTT), 0.005% (v/v) P20 at pH 7.5 as the running buffer at a flow rate of 50 μL/min.
All immobilization and subsequent binding studies were performed using a BIAcore 2000 instrument set at a temperature of 25 °C. Standard dextran surface BIAcore sensorchips (Sensor chip CM5) were purchased from BIAcore (GE Healthcare, Piscataway, NJ). Standard desorb and sanitize routines were performed according to the BIAcore guidelines before docking a new CM5 sensor chip. All buffers were filtered through sterile 0.2 μm nylon membranes (Millipore™) under vacuum. Before derivatizing the flow cells with streptavidin, the CM5 sensor chip was pre-conditioned using three successive 10 μL injections of chip-preparation solution (10 mM NaOH, 500 mM NaCl) at 100 μL/min, followed by a normalization routine using BIAnormalizing solution (40% glycerol). Streptavidin derivatization was performed according to standard procedures.
Prior to immobilization, the solution of biotinylated RNA in HBS-EP buffer (10 mM HEPES, 3 mM EDTA, 150 mM NaCl, 0.005% P20 at pH 7.4) was renatured by heating to 90 °C for 2 min, cooling gradually to room temperature, and placing on ice. Flow cells were functionalized by injecting 30 μL of RNA at a time using the MANUAL INJECT command at a flow rate of 10 μL/min, until the desired immobilization level was reached. One of the flow cells was used to immobilize RNA, while the adjacent cell remained unmodified to serve as a blank-control for matrix effects. Levels of RNA captured were calculated by subtracting […] for each flow cell. After RNA immobilization, both flow cells were blocked with 100 μL of 1 mg/mL biotin at 5 μL/min.
For the SPR experiments, the peptides were cloned into plasmid pBacEmGH (Cunningham Lab, to be described elsewhere) under transcriptional regulation of a PBAD promoter. Upon induction with L-arabinose, the resulting construct produces a fusion protein in which the peptide is fused to the N-terminus of EmGFP containing a C-terminus 6 x His affinity tag (PEP-EmGFP-6 x His).
Peptide samples were prepared by serial dilutions from stock solutions. Dilutions were made in running buffer (10 mM Tris·HCl, 150 mM NaCl, 10 mM MgCl2, 1 mM DTT, 0.005% (v/v) P20 at pH 7.5). All procedures for binding were automated, as optimized methods using repetitive cycles of sample injection and regeneration. Typically, running buffer was injected for ~30 min prior to experiment to establish a stable baseline value. Peptide solutions (200 μL) were injected at a kinetic flow rate of 50 μL/min, using the KINJECT command. All peptide samples were injected from 7 mm plastic vials (BIAcore) that were capped with pierceable plastic-crimp-caps to minimize carry-over and sample evaporation. Samples were injected in order of increasing concentration. The surface was regenerated using 150 μL of 500 mM NaCl. The data were fit to a 1:1 binding Langmuir model using BIAevaluation 3.0 software. […]

wild-type modified h31 [4] = assay: surface plasmon resonance (SPR), modified h31; type: binding, E. coli; settings: SPR kinetic analysis, 1:1 Langmuir; pH 7.5; 150 mM NaCl, 10 mM MgCl2; 50 μL/min; 25 °C; analyte 0–1 μM
unmodified h31 = assay: surface plasmon resonance (SPR), unmodified h31; type: binding, E. coli; settings: analyte 1 μM; ~200 fmoles RNA immobilized; injection time 1 min
Protocol: All immobilization and subsequent binding studies were performed using a BIAcore 2000 instrument set at a temperature of 25 °C. Standard dextran surface BIAcore sensorchips (Sensor chip CM5) were purchased from BIAcore (GE Healthcare, Piscataway, NJ). Standard desorb and sanitize routines were performed according to the BIAcore guidelines before docking a new CM5 sensor chip. All buffers were filtered through sterile 0.2 μm nylon membranes (Millipore™) under vacuum. […]
Prior to immobilization, the solution of biotinylated RNA in HBS-EP buffer (10 mM HEPES, 3 mM EDTA, 150 mM NaCl, 0.005% P20 at pH 7.4) was renatured by heating to 90 °C for 2 min, cooling gradually to room temperature, and placing on ice. […] Levels of RNA captured were calculated by subtracting response units after injection from response units before injection for each flow cell. […]
Kinetic constants were determined by integration of the experimental data using the differential rate equation dRU/dt = ka·C·(RUmax-RU)-kd·RU to obtain ka and kd values simultaneously (RU = observed response, RUmax = maximum response upon saturation, C = analyte concentration, ka = association rate constant, kd = dissociation rate constant). […]

Row | Substance | inhibition of in vitro protein synthesis ([1]; cell-free translation, summary statement) | order of translation inhibition by peptides (from high to low) ([1]; peptides at 1 mM, 37 °C, GFP fluorescence) | order of binding preference by the 30S subunits (from high to low) ([2]; Tentagel beads, fluorescence microscopy, pH 7.3) | fluorescence on beads after 30S binding ([2]; peptide on Tentagel beads, 30S subunits overnight at 4 °C, 20 mM HEPES, pH 7.3, 10 mM MgCl2, 100 mM KCl, duplicate) | fluorescence on beads with S11-emGFP protein (His(6)-EmGFP-S11 protein) | binding affinity to modified h31 (wild-type modified h31 [3]; in words, comparable to known antibiotics targeting 16S rRNA) | ka (association rate constant) (wild-type modified h31 [3]) | kd (dissociation rate constant) (wild-type modified h31 [3]) | KD (kd/ka) (wild-type modified h31 [4]) | binding interaction with unmodified h31 (unmodified h31)
1 | TLWDLIP [heptapeptide selected against modified h31, with and without counter selection] | inhibit in vitro protein synthesis | CVRPFAL ≈ FVRPFAL > TLWDLIP > TYLPWPA > DIRTQRE | TYLPWPA > CVRPFAL ≈ TLWDLIP > DIRTQRE | Fluorescence is observed | did not show any fluorescence; also recorded: fluorescence was not observed | high nM |  |  |  | 
2 | TLWDLIP-GFP |  |  |  |  |  |  | (93 ± 2) × 10^2 M^-1s^-1 | (3.1 ± 0.3) × 10^-3 s^-1 | 330 ± 7 nM | 
3 | CVRPFAL-GFP |  |  |  |  |  |  | (120 ± 1) × 10^2 M^-1s^-1 | (2.6 ± 0.02) × 10^-3 s^-1 |  | did not reveal any binding interactions; also recorded: No binding interaction was detected
